Source: patent US20050053625A1, “Method of treating viral infections” (priority 2001, published 2005)

Experiments:
[1] = test system: HBV; experiment: Secretion of HBV viral particles from Hep G2.2.15 cells (Proteinase K/DNase method); type: cell-based, Hepatitis B virus; settings: 4.5 mM, 7 days, Hep G2 2.2.15 cells, FIG. 3
Procedure: Virus secretion into the media was detected by a method that would differentiate between enveloped and un-enveloped DNA. Glucosidase inhibitors reduce the secretion of enveloped virus. Enveloped virus is resistant to Proteinase K/Dnase treatment; un-enveloped virus is not. (+) or (−) indicates the addition of DNase. See text for more details. From left to right: Untreated; 3TC (3.5 μM); […] (4.5 mM).
Inhibition of the ER a-glucosidases inhibits the secretion of enveloped HBV. The first glycan processing events are the removal of the terminal glucose residues in the ER by α-glucosidase I and II (FIG. 2). The α-glucosidase inhibitor N-butyldeoxynojirimycin (NB-DNJ) has been used to study the role of glucose processing in several proteins including human immunodeficiency virus (HIV-1) gp120 (Fisher et al., 1995) and the enzyme tyrosinase which is involved in melanin biosynthesis (Petrescu et al., 1996). […] Hep G2 2.2.15 cells were either left untreated or treated with 3TC (3.5 μM) or the glucosidase inhibitor NB-DNJ (4.5 mM) and 7 days latter the amount of enveloped virus detected in the culture medium by a method that would differentiate between enveloped and un-enveloped virus (Wei et al., 1997). This method realizes upon the resistance of enveloped HBV to limited Proteinse K treatment (Wei et al., 1997). […]

[2] = test system: WHV; settings: cited from earlier work
[3] = test system: HBV M protein; type: cell-based; settings: for secretion of the M protein: indicated concentrations, three days, FIG. 4
Procedure: Hep G2 cells were transfected with an M only expression vector and the next day the cells divided equally into 6 well trays. Compound was added one day latter at the indicated concentrations and the media changed every two days. The presence of sub-viral particles in the medium was detected via the Abbott Diagnostics Auszyme Monoclonal Diagnostic Kit as per manufacture's directions. For Graph: Y-axis is the OD at 492. X-axis indicates the compounds or cells used in the assay.
Hep G2 cells transfected with the HBV M expression vector were treated with the glucosidase inhibitor NB-DNJ (4.5 mM and 6 days latter the amount of M protein associated with the culture medium (secreted) and the cells (retained) determined by ELISA. See text for more details. For graph: x-axis, Drug treatment and location of protein; for y-axis, % of HBV M protein as compared to untreated
Hep G2 cells were transfected with the M only expression vector and seeded as daughter flasks into 6 well trays. Following 4 days of treatment of glucosidase inhibitor (NB-DNJ (4.5 mM)), drug was either removed (in samples labels as —R) or left on as a control. Day 0 is the time in which drug was removed. […] Day 3 and Day 5 are days after drug removal. For Graph: Y-axis is the OD at 492. X-axis indicates the compounds or cells used in the assay. UN=untreated sample; Un-R is the untreated rebound sample; NB=N-butyl-DNJ; NB-R=N-butyl-DNJ rebound sample.
HBV M protein secretion is sensitive to glucosidase inhibition. Our previous work has determined that the secretion of HBV sub-viral particles containing the M protein was sensitive to glucosidase inhibition. (Mehta et al., 1997). That is, when Hep G2 2.215 cells were treated with the glucosidase inhibitor NB-DNJ, purified sub-viral particles appeared to lack the M protein. However, it was unclear if this was the result of the M protein's sensitivity to glucosidase inhibition or required some other viral factor. To test this hypothesis, an expression vector (pCMV-MS^−X) directs the expression of HBV M, but no other viral protein, was created. This “M only” expression vector was then used to determine if the M protein itself, in the absence of other viral functions, was sensitive to glucosidase inhibition. In addition, an expression vector, unable to express “M”, but able to express “S” was made on the same plasmid backbone as the “M” only vector, as was used as a control (pCMV-M^−SX). For these studies three imino sugars were used: N-butyl-DNJ, N-nonyl-DNJ and N-nonyl-DGJ. N-butyl-DNJ is our standard glucosidase inhibitor and has been used by several labs for over 10 years (Carlson et al.,1995, Block et al., 1994). […] Briefly, Hep G2 cells were transfected with the expression vectors pCMV HBV MS^−X and pCMV HBV M^−SX and subsequently seeded into fresh 6 well trays. The transfected cells were treated with the indicated concentrations of NB-DNJ, NN-DNJ or NN-DGJ (as a negative control) and three days latter the media analyzed for the presence of the HBV M or HBV S protein as described in Mehta et al, 2001. […] Fore example, concentrations of NN-DNJ which have no impact upon glycan inhibition, as determined by glycan analysis or α-1-acid-glycoprotein secretion, had no effect upon HBV M protein secretion (data not shown). In contrast to the effect of the glucosidase inhibitors on M protein secretion, the secretion of the HBV S protein was insensitive to either NB-DNJ or NN-DNJ providing further proof that the S protein is insensitive to glucosidase inhibition (data not shown; Block et al., 1994, Mehta et al., 1997, Werr & Prange, 1998). To determine if the secretion of the HBV M protein was prevented by another non-glucosidase mechanism, other compounds with the same alkyl side chain (tail) but altered imino sugar head groups, were synthesized. For example, NN-DGJ has the same chain length as NN-DNJ but is not a glucosidase inhibitor. […]

[4] = test system: HIV; settings: relative to cells not exposed; cited from earlier work
[5] = test system: HBV; settings: cited from earlier work
[6] = test system: bovine viral diarrhea virus (BVDV); settings: comparison of N-butyl and N-nonyl DNJ; U.S. Pat. No. 6,465,487; cited from earlier work
[7] = test system: bovine viral diarrhea virus (BVDV); experiment: BVDV in mammalian cells in tissue culture; type: cell-based
From the text: We have discovered that cytotoxicity resulting from exposure of mammalian cells in tissue culture to bovine viral diarrhea virus (BVDV) is prevented by addition of a glucosidase inhibitor to the tissue culture medium. The glucosidase inhibitors useful according to the present invention include, but are not limited to a derivative of 1,5-dideoxy-1,5-imino-D-glucitol (DNJ), in particular, N-butyl-DNJ (NBDNJ). […] Because BVDV is an accepted tissue culture model of hepatitis C virus (HCV) (Henzler, H.-J. and K. Kaiser (1998) Nature Biotech 16:1077-1078), the compositions and methods described herein for inhibiting morphogenesis of BVDV are also useful for inhibiting morphogenesis of HCV.
The substituents on the basic 1,5-dideoxy-1,5-imino-D-glucitol can influence the potency of the compound as an antiviral agent and additionally can preferentially target the molecule to one organ rather than another. […] Methods for comparing the potencies of various substituted compounds are provided in Example 1. […] Methods for determining preferential targeting properties of variously substituted DNJs is provided in Example 8 and FIG. 8 in U.S. Pat. No. 6,465,487.

[8] = test system: glucosidase; experiment: Glucosidase / glycan processing inhibition in cells; type: cell-based
[9] = test system: HBV; settings: chronic HBV patients; cited from earlier work
[10] = test system: HCV; settings: cited from earlier work

OC[C@H]1NC[C@H](O)[C@@H](O)[C@@H]1O [DNJ, 1,5-dideoxy-1,5-imino-D-glucitol]
secretion of enveloped virus versus un-enveloped virus [1]: inhibits the secretion of enveloped virus more effectively than un-enveloped virus

Cc1cn([C@H]2O[C@@H](CO)[C@H](O)[C@H]2F)c(=O)[nH]c1=O [L-FMAU, 1-(2-Fluro-5-Methy-B-L-Arabinofuranosyl)-Uracil]
decrease in the amount of serum WHsAg ([2]; long term treatment): 10 fold | immune responses developed ([2]; woodchucks, drug alone): limited cellular and humoral immune responses

CCCCN1C[C@H](O)[C@@H](O)[C@H](O)[C@H]1CO [NB-DNJ, N-butyl-1,5-dideoxy-1,5-imino-D-glucitol]
amount of M protein in the culture medium after 4 days of treatment ([3]; 4.5 mM, 4 days, FIG. 6): substantial decrease | HBV M protein associated with the cells (retained) ([3]; 4.5 mM, 6 days, ELISA, FIG. 5): retention of the HBV M protein | HBV M protein associated with the culture medium (secreted) ([3]; 4.5 mM, 6 days, ELISA, FIG. 5): reduction in the amount of HBV M protein associated with the culture medium | level of M protein in the culture medium after compound removal ([3]; after 4 days treatment, drug removed, FIG. 6): remained depressed until the 5th day | secretion of the M protein [3]: prevented the secretion of the M protein | M protein secretion at lower concentrations ([3]; lower concentrations, which inhibit lower levels of glucosidase): able to inhibit M protein secretion | effect on cell number or viability ([3]; sustained reduction experiment, data not shown): not due to an effect on cell number or viability | infectivity of virus particles released from HIV-infected cells [4]: greatly reduced | secretion of HBV viral particles ([5]; Hep G2.2.15 cells): prevents the secretion of HBV viral particles | egress of subviral particles ([5]; stable transfected HepG2 cells): does not prevent egress | egress of the mature HBV virion ([5]; stable transfected HepG2 cells): prevents egress | potency in inhibiting the intracellular production of BVDV virus [6]: less potent | toxicity toward host cells ([7]; conditions inhibiting BVDV-induced cytotoxicity): little, if any, toxicity | BVDV-induced cytotoxicity ([7]; tissue culture): inhibition of BVDV-induced cytotoxicity was achieved | time to return of glucosidase enzyme function after removal of inhibitor ([8]; not shown or Tan et al, 1994): less than 3 hours

CCCCCCCCCN1C[C@H](O)[C@@H](O)[C@@H](O)[C@H]1CO [NN-DGJ, reference compound]
secretion of the M protein [3]: but not NN-DGJ which does not inhibit glucosidase, reduces the amount of M detected in the medium | glucosidase inhibition ([8]; negative control): does not inhibit glucosidase

Alpha-interferon
treated patients achieving certain serological milestones [9]: 7-40% | patients with long-term improvement [10]: 5%
